Consider 5 compounds from ChEMBL document CHEMBL3044823, “Design, synthesis, and evaluation of anti-inflammatory and ulcerogenicity of novel pyridazinone derivatives” (Med Chem Res, 2012).

As usually defined, the inhibition in vivo is the drop in the measured response relative to a control, in per cent.

For data set [1], the system named is Rattus norvegicus. Briefly: Ulcerogenicity in Rattus norvegicus Sprague-Dawley (rat) stomach assessed as ulcer score at 50 mg/kg administered via intragastrically after 6 hr by hematoxylin and eosin staining. It is filed as toxicity, organism-based. The arrangement: dose 50 mg/kg, route intragastric. Particulars: in vivo, po.
The test system of data set [2] is Rattus norvegicus. Briefly: Anti-inflammatory activity in Rattus norvegicus Sprague-Dawley (rat) assessed as inhibition of carrageenan-induced paw edema at 10 mg/kg administered 1 hr prior to carrageenan challenge measured at 4 hr relative to control. The format is functional.
Data set [3] has as its system Rattus norvegicus. The experiment in a line: Anti-inflammatory activity in Rattus norvegicus Sprague-Dawley (rat) assessed as inhibition of carrageenan-induced paw edema at 10 mg/kg administered 1 hr prior to carrageenan challenge measured at 1 hr relative to control. The format is functional. For orientation: Carrageenan injected into the paw causes an acute inflammation.

Data set [4] concerns Rattus norvegicus. Briefly: Anti-inflammatory activity in Rattus norvegicus Sprague-Dawley (rat) assessed as inhibition of carrageenan-induced paw edema at 10 mg/kg administered 1 hr prior to carrageenan challenge measured at 4 hr relative to diclofenac. The format is functional.
Data set [5] concerns Rattus norvegicus. The experiment in a line: Anti-inflammatory activity in Rattus norvegicus Sprague-Dawley (rat) assessed as inhibition of carrageenan-induced paw edema at 10 mg/kg administered 1 hr prior to carrageenan challenge measured at 2 hr relative to control. The format is functional.
The test system of data set [6] is Rattus norvegicus. Briefly: Ulcerogenicity in Rattus norvegicus Sprague-Dawley (rat) stomach assessed as decrease in gastric mucosa layer thickness at 50 mg/kg administered via intragastrically after 6 hr by hematoxylin and eosin staining relative to untreated control. The format is toxicity, organism-based. The arrangement: dose 50 mg/kg, route intragastric; scale not given: the % may be the effect or the level left. Particulars: in vivo, po.

Data set [7] concerns Rattus norvegicus. Briefly: Ulcerogenicity in Rattus norvegicus Sprague-Dawley (rat) stomach assessed as appearance of cone shape gastric mucosa layer at 50 mg/kg administered via intragastrically after 6 hr by hematoxylin and eosin staining relative to untreated control. The conditions noted are these: in vivo, po. It is filed as toxicity, organism-based. The arrangement: dose 50 mg/kg, route intragastric.

Take `Cc1cccc(C)c1Nc1ccc(=O)[nH]n1`: the UI in data set [1] is 1.8.
The same measure, in the same setting: under `O=C(O)c1ccccc1Oc1ccc(=O)[nH]n1` stands 2; under `O=c1ccc(Nc2ccccc2Br)n[nH]1`, 4.2.
Turning to `O=C(O)Cc1ccccc1Nc1c(Cl)cccc1Cl` [DICLOFENAC], the inhibition in vivo at 10 mg/kg in data set [2] was determined as 78.3%; in data set [3] it was 65.3%; in data set [4], 100%; in data set [5], 73.5%.
As for `COc1ccc2c(c1)c(CC(=O)O)c(C)n2C(=O)c1ccc(Cl)cc1` [INDOMETHACIN], the Activity in data set [6] is 20%; in data set [7] it was “Toxic”. In data set [1], the UI turned out to be 7.2.
